A short description of data set [1]: stability test in liver microsomes (monkey). Type of data set: in vitro ADME. The following applies: Monkey liver microsomes. As for the experimental part:
(§1) The stability of the compound of the present invention in liver microsomes of rat, monkey and human was determined. Tested compounds of the present invention were the compounds in Examples 6 and 8 , and a control drug was Zavegepant.
(§2) 3.2 An appropriate amount of liver microsome solution was transferred into a 1 mL 96-deep-well plate, added with a tested drug liquid (or a probe substrate solution), and pre-incubated in a thermal mixer at 37°C for 5 minutes. Two parts of mixed solutions were taken out from the system and added with 1×PBS to replace NADPH, and the mixed solutions were taken out at 0 and 60 minutes respectively, and added with methanol (containing an internal standard) to terminate the reaction. In the remaining mixed system, each well was added with NADPH to start the reaction. In the tested substance group, mixed solutions were taken out from the system at 0, 5, 15, 30, 45 and 60 minutes, and in the control group, mixed solutions were taken out from the system at 0, 30 and 60 minutes, and the mixed solutions were added methanol (containing an internal standard) to terminate the reaction. All samples of the terminated reaction were mixed evenly and centrifuged in a centrifuge at 3800 rpm for 15 minutes, and the supernatant was taken for LC-MS/MS analysis.
(§3) A peak area was determined by an extracted ion chromatogram. A slope value k was determined by linear regression of a remaining percentage of a parent drug relative to a natural logarithm of an incubation time curve. According to the slope, in-vitro half-life periods (t1/2) were respectively calculated, and in-vitro intrinsic clearance rates (CLint, represented by µL/min/mg protein) were calculated. Calculation formulas were as follows: t1/2 = ln2/k = 0.693/k; and CLint = 0.693/t1/2 /liver microsome protein concentration [formula]
Background: Microsomes from liver hold many membrane-bound enzymes, among them those of drug oxidation.

A short description of data set [2]: PK properties in SD rats with or without 0.2% alkyl glycoside (DDM). In kind it is in vivo. The following applies: for Tmax: rat, in vivo; for Tmax shortened by: 0.2% DDM vs without DDM; for Tmax(DDM 0.2%)/ Tmax(DDM 0%): 0.2% dodecyl-β-D-maltoside (DDM) vs without DDM. The text has this:
During preparation of a test sample in the Test Example 5, a drug solution group with 0.2% dodecyl-β-D-maltoside (DDM) was also established and prepared in parallel, so as to compare and observe changes of PK properties in rats administered with the drug solution group with 0.2% dodecyl-β-D-maltoside (DDM) and the drug solution group without dodecyl-β-D-maltoside (DDM).

Data set [3] is described as follows: PK properties in SD rats with different concentrations of alkyl glycoside (0.05% and 5% DDM). Conditions: for Tmax: rat, in vivo; for Tmax(DDM 0.05%)/ Tmax(DDM 0%): 0.05% DDM vs without DDM; for Tmax(DDM 5%)/ Tmax(DDM 0%): 5% DDM vs without DDM. In kind it is in vivo. The source says:
During preparation of a test sample in the Test Example 7, drug solution groups with 0.05% and 5% dodecyl-β-D-maltosides (DDM) were established and prepared in parallel, so as to compare and observe changes of PK properties in rats administered with the drug solution groups with two different concentrations of dodecyl-β-D-maltosides (DDM).

Data set [4] deals with Plasma of SD rat. In words: plasma protein binding rate test, equilibrium dialysis (rat). Type of data set: in vitro ADME. The following applies: 1 µM, 37°C, 6 hours. The protocol: Protein binding rates of the compound of the present invention in plasma of rat, monkey and human were determined by an equilibrium dialysis method. Tested compounds of the present invention were the compounds in Examples 6 and 8.
3.1 A dry dialysis membrane was rinsed with ultrapure water for 2-3 times, and then soaked in a phosphate buffer for 1 hour for later use. Polytetrafluoroethylene module was soaked in 20% ethanol for 30 minutes, and then surface moisture was dried with dust-free paper for later use. The pretreated dialysis membrane was assembled into a dialysis plate according to the product specification, and one side (receptor compartment) of an osmotic membrane in each dialysis well was added with 100 µL of receptor fluid (100 mM phosphate buffer solution plus 0.002% Tween 80).
3.2 The plasma was put into a centrifuge tube, a working solution of a tested substance was added into the plasma, wherein a final concentration was 1 µM, and the mixture was turned upside down and mixed evenly (this step was carried out in ice bath). 20 µL of drug-containing plasma each was taken, and was respectively transferred to a 96-well sample plate according to two parts in parallel, and stored in a refrigerator at -20°C as a T0 sample.
3.3 Another 100 µL of the above drug-containing plasma was transferred to the other side (sample compartment) of the membrane in the dialysis device according to two parts in parallel, and incubated under vibration at a constant temperature of 37°C for 6 hours. […]
A plasma protein binding rate and a recovery rate of the compound in plasma were calculated by the following formulas: dissociation percentage (%) = CB /CA; [formula] plasma protein binding rate (fb%) = 1−dissociation percentage (%); [formula] recovery rate (%) = (CB+CA)/CT0 [formula] wherein CB was a concentration of the compound in the receptor fluid after equilibrium dialysis; CA was a concentration of the compound in the drug-containing plasma after equilibrium dialysis; and CT0 was an initial concentration of the compound in plasma.

Data set [5] in a line: stability test in liver microsomes (human). Type of data set: in vitro ADME. Conditions: Human liver microsomes, 60 min. The protocol: as §1, §2, §3
Setting [6] is: intranasal, 0.05% alkyl glycoside vs without.
Setting [7] is: intranasal, 5% alkyl glycoside vs without.

Each structure is given as a SMILES string.

One may read the Tmax as the time from dosing to the highest level.

On to `Cc1cc(C[C@@H](NC(=O)N2CCC(c3cc4c([nH]c3=O)SCC4)CC2)C(=O)N2CCN(C3CCN(C)CC3)CC2)cc2cn[nH]c12` [Example 8, (R)-N-(3-(7-methyl-1H-indazole-5-yl)-1-(4-(1-methylpiperidine-4-yl)piperazine-1-yl)-1-oxopropan-2-yl)-4-(6-oxo-2,3,6,7-tetrahydrothieno[2,3-b]pyridine-5-yl)piperidine-1-formamide], for which the “% remaining (60 min)” value in data set [1] came to 61.6%; in data set [5], 85.8%. Further, the Tmax in data set [2] (Sprague-Dawley, inhaled or intranasal, 0.2% DDM) was 10 min; in data set [2] (Sprague-Dawley, inhaled or intranasal, not added with DDM (0%DDM)), 12.5 min; in data set [3] (Sprague-Dawley, inhaled or intranasal, 0.05% alkyl glycoside), 10 min; in data set [3] (Sprague-Dawley, inhaled or intranasal, 5% alkyl glycoside) it was 4.98 min; in data set [3] (Sprague-Dawley, inhaled or intranasal, without alkyl glycoside) it was 12 min. For the same molecule, the “Tmax shortened by” value in data set [2] (intranasal) is listed as 20.1%; in data set [3] (setting [6]), 20%; in data set [3] (setting [7]), 60%. Besides, in data set [2] (intranasal), the “Tmax(DDM 0.2%)/ Tmax(DDM 0%)” value is listed as 79.9%. Moreover, the “Tmax(DDM 0.05%)/ Tmax(DDM 0%)” value in data set [3] (intranasal) is on record as 79.9%. The “Tmax(DDM 5%)/ Tmax(DDM 0%)” value in data set [3] (intranasal) was determined as 39.7%. Moreover, the “fb (%)” value in data set [4] is 69.4%.
In data set [1], `Cc1cc(C[C@@H](NC(=O)N2CCC(c3cc4c([nH]c3=O)SCCC4)CC2)C(=O)N2CCN(C3CCN(C)CC3)CC2)cc2cn[nH]c12` [Example 6, (R)-N-(3-(7-methyl-1H-indazole-5-yl)-1-(4-(1-methylpiperidine-4-yl)piperazine-1-yl)-1-oxopropan-2-yl)-4-(7-oxo-3,4,7,8-tetrahydro-2H-thiopyrano[2,3-b]pyridine-6-yl)piperidine-1-formamide] showed a CLint of 0.8 µL/min/mg. In addition, the “% remaining (60 min)” value in data set [1] was 96.9%; in data set [5], 131%. In addition, the “Tmax shortened by” value in data set [2] (intranasal) stood at 83.3%; in data set [3] (setting [6]) it was 75%; in data set [3] (setting [7]), 91.7%. In data set [2] (intranasal), the “Tmax(DDM 0.2%)/ Tmax(DDM 0%)” value came out at 16.7%. The Tmax in data set [2] (intranasal, 0.2% DDM) amounted to 10 min; in data set [2] (intranasal, not added with DDM (0%DDM)), 60 min; in data set [3] (intranasal, 0.05% alkyl glycoside), 15 min; in data set [3] (intranasal, 5% alkyl glycoside), 4.98 min; in data set [3] (intranasal, without alkyl glycoside) it was 60 min. In addition, the “Tmax(DDM 0.05%)/ Tmax(DDM 0%)” value in data set [3] (intranasal) is 25.0%. Also, in data set [3] (intranasal), the “Tmax(DDM 5%)/ Tmax(DDM 0%)” value is 8.3%. Moreover, in data set [4], the “fb (%)” value turned out to be 90.0%.

The values above are taken from patent EP4781986A1, “PHARMACEUTICAL COMPOSITION HAVING IMPROVED PHARMACOKINETIC PROPERTIES” (Sichuan Purity Pharmaceutical Co., Ltd., priority 2023, dated 2025).
